For data set [1] the following is noted: cited from earlier work.
The test system of data set [2] is PANC-1 (human pancreas cancer). The data set is described as follows: Cancer cell killing, MTT assay at pH 7.4 and pH 6.5. Format: cell-based. To be noted: regardless of pH (7.4, 6.5). How it is done: (§1) In order to confirm the cancer cell killing effect of the CA and API-based pH-sensitive carbon nanoparticle drug carrier encapsulated with doxorubicin prepared in Example 4, HCT-116 (human colon cancer), SKBR-3 (human breast cancer), PANC-1 (human pancreas cancer) cells were used. The pH-sensitive carbon nanoparticle drug carrier was treated by concentration of doxorubicin in culture solutions of pH 7.4 and pH 6.5, respectively, and the comparison group was comparatively evaluated by treating doxorubicin alone by concentration. Cell death was performed using the MTT assay, and analyzed at 490 nm using a microplate reader.
On the technique in general: Tetrazolium dyes change colour on reduction, which living cells bring about.

For data set [3], the system named is HCT-116 (human colon cancer). The description is as above. The conditions noted are these: regardless of pH (7.4, 6.5). Type of data set: cell-based. How it is done:
as §1

Data set [4] relates to SKBR-3 (human breast cancer). The data set is described as above. Format: cell-based. The conditions noted are these: regardless of pH (7.4, 6.5). The procedure: as §1
For data set [5], the system named is HCT-116 (Human colon cancer) cells. The data set is described as follows: Inhibition of cancer growth in vivo, cancer tissue size for 15 days. Also noted: species or system BALB/c mice. To be noted: intravenous, 2 mg/ml based on doxorubicin. How it is done: After that, the size of the cancer tissue was measured for 15 days to confirm the anticancer effect.

Data set [6] concerns CT-26 (Mouse colon cancer) cells. The data set is described as follows: In vivo behavior, in vivo fluorescence imaging for 24 hours. Also noted: species or system BALB/c nude mice. To be noted: intravenous, 0.4 mg/ml based on chlorine e6, 24 hours. The procedure:
In order to confirm the in vivo behavior of the pH-sensitive photodynamic therapeutic agent prepared in the above Example 5, CT-26 (Mouse colon cancer) cells were inoculated into BALB/c nude mice. When the size of the cancer tissue reaches about 50-100 mm^3, a pH-sensitive photodynamic therapeutic agent (Ce6@CDs) and chlorine e6 alone formulation (Free Ce6) as a comparative group were injected intravenously at 0.4 mg/ml based on chlorine e6, and for 24 hours after then, the in vivo behavior was confirmed using in vivo fluorescence imaging (fluorescence-labeled bioimaging instrument) hourly.

The test system is the same in data set [7]. The data set is described as follows: Intracellular influx according to pH, confocal microscopy. The conditions noted are these: pH 7.4, 4 hours. Type of data set: cell-based. How it is done: In order to confirm the influx effect into cancer cells at pH 7.4 and pH 6.5 using the pH-sensitive photodynamic therapeutic agent prepared in the above Example 5, CT-26 (Mouse colon cancer) cells were used. The pH-sensitive carbon nanoparticle-based photodynamic therapeutic agent was treated for 4 hours in the culture solutions of pH 7.4 and pH 6.5, respectively, and chlorine e6 was treated alone as a control group for comparative evaluation. The intracellular influx was analyzed by fluorescence (460, 665 nm) of carbon nanoparticles and chlorine e6 using confocal microscopy.

A short description of data set [8]: Active oxygen generation, singlet oxygen sensor green (SOSG), 670 nm laser. To be noted: for singlet oxygen generation: 670 nm laser, 20 mW/cm^2. The procedure: A singlet oxygen sensor green (SOSG) capable of detecting singlet oxygen was used to confirm the generation of active oxygen in particles of a pH-sensitive photodynamic therapeutic agent prepared in the above Example 5.
Specifically, 1 ml of a solution in which SOSG was dissolved and 1 ml of a solution in which a pH-sensitive carbon nanoparticle-based photodynamic therapeutic agent was dissolved were mixed, and a 670 nm laser was irradiated. The laser was irradiated with an energy of 20 mW/cm^2, and the fluorescence intensity was measured using a fluorescence spectrophotometer every 10 seconds (0.2 J/cm^2) to confirm the generation of active oxygen. In addition, in order to measure the efficiency of generating reactive oxygen species according to pH, 1 ml of a solution in which a pH-sensitive photodynamic therapeutic agent having pH 7.4, the pH in vivo and a pH of 6.5 in a cancer environment, was dissolved and 1 ml of a SOSG solution were mixed, and a 670 nm laser is irradiated. The laser was irradiated with an energy of 50 mW/cm^2, and the fluorescence intensity was measured using a fluorescence spectrophotometer every 10 seconds (0.5 J/cm^2) to confirm the generation of active oxygen species.

Data set [9] relates to CT-26 (Mouse colon cancer) cells. The data set is described as follows: In vivo photodynamic anticancer and immune anticancer effect, both cancer tissues for 15 days. Also noted: species or system BALB/c mice. The conditions noted are these: 0.4 mg/ml based on chlorine e6 i.v. The source says:
In order to confirm the anticancer effect in vivo and the anticancer effect due to photodynamic-based immunity induction of the pH-sensitive photodynamic therapeutic agent prepared in the above Example 5, CT-26 (Mouse colon cancer) cells were inoculated subcutaneously in the left leg of BALB/c mice (1×10^6 cells) and the right leg (5×10^5 cells). When the size of the cancer tissue reaches about 50 mm^3, a pH-sensitive photodynamic therapeutic agent, chlorine e6 alone formulation as a comparative group, pH-sensitive carbon nanoparticles without drug encapsulation, and PBS were injected intravenously at 0.4 mg/ml based on chlorine e6, and after 24 hours after intravenous injection, only the left cancer tissue was irradiated with a laser. This was repeated twice, and the laser was irradiated for 1000 seconds (100 J/cm^2) with an energy of 100 mW/cm^2. By measuring the size of both cancer tissues for 15 days, the photodynamic anticancer effect and the resulting immune anti-cancer effect were confirmed.

Data set [10] has the same test system. The data set is described as follows: Photodynamic cancer cell killing at pH 6.5, MTT assay. The conditions noted are these: pH 6.5, 1 μg/ml based on chlorine e6, 670 nm laser irradiated (+), 2 J/cm^2. The procedure:
In order to confirm the cancer cell killing effect of the pH-sensitive photodynamic therapeutic agent prepared in the above Example 5 at a cancer environment pH of 6.5, CT-26 (Mouse colon cancer) cells were used. Samples of the pH-sensitive carbon nanoparticle-based photodynamic therapeutic agent and chlorine e6 alone as other comparative group and carbon nanoparticles without pH sensitivity (Comparative Example 1) were treated with 1 μg/ml based on the concentration of chlorine e6 in the pH 6.5 culture medium, equally and a 670 nm laser was irradiated thereto. The laser was irradiated for […] (2 J/cm^2) with an energy of 50 mW/cm^2. Cell death was performed using the MTT assay, and analyzed at 570 nm using a microplate reader.

As to `NCCCn1ccnc1` [API, 1-(3-aminopropyl) imidazole], the pKa value in [1] is recorded as 6.9.
Take `COc1cccc2c1C(=O)c1c(O)c3c(c(O)c1C2=O)C[C@@](O)(C(=O)CO)C[C@@H]3O[C@H]1C[C@H](N)[C@H](O)[C@H](C)O1` [Free DOX, doxorubicin]: the “concentration at which cells died” value in [2], in [3] and in data set [4] was “about 50 ug/ml” throughout. For the same compound, the “cancer growth in vivo” value in data set [5] is given as “cancer continued to grow”.
Consider `C=Cc1c(C)c2cc3nc(c(CC(=O)O)c4[nH]c(cc5nc(cc1[nH]2)C(C)=C5CC)c(C)c4C(=O)O)[C@@H](CCC(=O)O)[C@@H]3C` [Free Ce6, chlorine e6], for which, in data set [6], the “in vivo fluorescence behavior” value is “fluorescence quickly disappeared”. For the same compound, the “degree of influx into cells” value in [7] is reported as “similar”. The singlet oxygen generation result in data set [8] is “hardly produce singlet oxygen”. In data set [8] (pH 7.4 and pH 6.5, 670 nm laser, 50 mW/cm^2), the “singlet oxygen generation according to pH” value was “hardly generated singlet oxygen”. In addition, in data set [9], the “cancer growth regardless of laser irradiation” value is “cancer rapidly grows”. In [10], this compound registered a cell death rate of 50%.
On to pheophorbide a [Pheo A], for which, in [8], the singlet oxygen generation entry was “hardly produce singlet oxygen”.

The values above are taken from US12409150B2, “pH-sensitive carbon nanoparticles, preparation method therefor, and drug delivery using same” (PCE Tech Co., Ltd., priority 2018, dated 2025).
